Tested on: ventricular myocytes
Test: Micro cAMP measurement in tissue cultures with enzymatic fluorometric assay
Format: cell-based, rat
Details: isolated ventricular myocytes of 1 day-old rats, 2 μM IBMX, isoproterenol 1 μM final, 5 minutes, one-tenth of eluent, cAMP standard curve
Method: Isolated ventricular myocytes were obtained from hearts of 1 day-old rats, grown in primary cultures. There were approximately 5 million viable myocardial cells per heart. After plating at a density of approximately 1 million cells per 100 mm, dish cells were grown in minimum essential medium with Hanks balanced salt solution containing 5% bovine calf serum cells. Simpson et al., Cir. Res., 51, 787 (1982). On day 4, the medium was changed. The cultures contained >90% myocardial cells and cell numbers were constant over time. Simpson et al., Cir. Res., 51, 787 (1982); Rocha-Singh et al., J. Clin. Invest., 88, 204 (1991); and Rocha-Singh et al., J. Clin. Invest., 88, 706 (1991)
Six plates of myocytes were randomized into two groups (n=3 plates/group). […]
A volume of 125 μL of the Detecting Reaction Mixture prepared from (E) (100 mM Tris-HCl, pH 8.0; 3.2 mM EDTA; 0.6 mM NADP^+; 1 U/mL Phosphoglucose isomerase; 0.5 U/mL Glucose-6-phosphate dehydrogenase) was added to each assay tube from Cycling Reactions. After 20 minutes at room temperature, the final concentration of NADPH was measured using a fluorometer (Optical Technology Devises, Inc., NY). The fluorometer was set such that a reading of 10 fluorometric units was equivalent to 1 nmol of NADPH in 900 μL of buffer (50 mM Tris-HCl, pH 8.0). […]

For `CC(C)NCC(O)c1ccc(O)c(O)c1` (stereo not shown) [isoproterenol], the “actual value of cAMP” value was 680 pmol/100 mm plate.

From patent publication US7807367B2, “Enzymatic fluorometric assay for cAMP and adenylate cyclase and kits therefor” (Fuso Pharmaceutical Industries, Ltd., priority 1999, dated 2010)
